In the experiment the target is Recombinant human CYP51A1 (lanosterol-14a-demethylase) (Homo sapiens (Human), UniProt Q16850). Nature of the experiment: Inhibition of CYP51A1, fluorescent substrate BOMCC. Type of experiment: biochemical. To be noted: recombinant human CYP51A1 coexpressed with CYP reductase in bacterial membranes, 8-point concentration-response, read-out: CYP51 IC50. From the text: Method: Recombinant human CYP51A1 (lanosterol-14a-demethylase) enzyme was coexpressed with CYP reductase in bacterial membranes and the fluorescent substrate BOMCC (a nonnatural substrate that causes increases in fluorescence upon CYP51A1-dependent demethylation) was used to obtain 8-point dose concentration-response curves for each compound.
Chain of Recombinant human CYP51A1 (lanosterol-14a-demethylase) (Q16850 whole entry): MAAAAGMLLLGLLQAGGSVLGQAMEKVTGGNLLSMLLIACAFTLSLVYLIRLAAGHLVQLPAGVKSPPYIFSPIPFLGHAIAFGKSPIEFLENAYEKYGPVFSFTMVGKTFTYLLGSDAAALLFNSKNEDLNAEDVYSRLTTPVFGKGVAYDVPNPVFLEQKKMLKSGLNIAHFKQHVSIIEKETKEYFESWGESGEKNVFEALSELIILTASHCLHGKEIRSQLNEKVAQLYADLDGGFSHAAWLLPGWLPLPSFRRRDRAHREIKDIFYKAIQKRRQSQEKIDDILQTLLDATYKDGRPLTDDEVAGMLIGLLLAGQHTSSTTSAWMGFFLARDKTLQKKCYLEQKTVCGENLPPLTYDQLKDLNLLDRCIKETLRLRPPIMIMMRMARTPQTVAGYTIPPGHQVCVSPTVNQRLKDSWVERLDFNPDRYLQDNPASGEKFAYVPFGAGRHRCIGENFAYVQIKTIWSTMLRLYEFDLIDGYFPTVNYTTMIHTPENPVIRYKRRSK
The term IC50 denotes the point on the concentration scale where inhibition reaches its midpoint. Take `CCCN(C[C@@H](O)c1cccnc1)C(=O)Cc1ccc(C)nc1` [compound 15, N-[(2S)-2-hydroxy-2-(3-pyridyl)ethyl]-2-(6-methyl-3-pyridyl)-N-propyl-acetamide]: the IC50 was above 1000 nM.
With `NCCCCCN(CC(O)c1cccnc1)C(=O)Cc1ccc(Cl)c(Cl)c1` (centres unmarked) [compound 33, N-(5-aminopentyl)-2-(3,4-dichlorophenyl)-N-[2-hydroxy-2-(3-pyridyl)ethyl]acet amide], the IC50 is above 1000 nM.
To `CCCN(C[C@@H](O)c1cccnc1)C(=O)Cc1ccc(C(F)(F)F)c(F)c1` [compound 105, 2-[3-fluoro-4-(trifluoromethyl)phenyl]-N-[(2S)-2-hydroxy-2-(3-pyridyl)ethyl]-N-propyl-acetamide] belongs at most 100 nM; to `O=C(Cc1ccc(C(F)(F)F)nc1)N(CC(O)c1cccnn1)C1CCC1` (centres unmarked) [compound 60, N-cyclobutyl-N-(2-hydroxy-2-pyridazin-3-yl-ethyl)-2-[6-(trifluoromethyl)-3-pyridyl]acetamide], 100 to 1000 nM; to `CCC(=O)N(C[C@@H](O)c1cccnc1)C1Cc2cnc(C(F)(F)F)cc2C1` (stereo partly drawn) [compound 93, N-[(2S)-2-hydroxy-2-(3-pyridyl)ethyl]-N-[3-(trifluoromethyl)-6,7-dihydro-5H-cyclopenta[c]pyridin-6-yl]propanamide], above 1000 nM.
With `CC(C)c1ccncc1C(O)CN(CC1COC1)C(=O)Cc1ccc(C(F)(F)F)nc1` (centres unmarked) [compound 90, N-[2-hydroxy-2-(4-isopropyl-3-pyridyl)ethyl]-N-(oxetan-3-ylmethyl)-2-[6-(trifluoromethyl)-3-pyridyl]acetamide], the half-inhibitory concentration (IC50) is at most 100 nM.
For `O=C(Cc1ccc(Cl)c(Cl)c1)N(CC1COC1)C[C@@H](O)c1cccnc1` [compound 25, 2-(3,4-dichlorophenyl) -N-[(2S)-2-hydroxy-2-(3-pyridyl)ethyl]-N-(oxetan-3-ylmethyl)acetamide], the half-inhibitory concentration (IC50) lay in the range of 100 to 1000 nM.
Take `CCCN(C[C@@H](O)c1cccnc1)C(=O)C1Cc2cc(Cl)c(Br)cc2C1` (stereo partly drawn) [compound 131, 5-bromo-6-chloro-N-[(2S)-2-hydroxy-2-(3-pyridyl)ethyl]-N-propyl-indane-2-carboxamide]: the IC50 was at most 100 nM.
For `COC(=O)N(CCc1ccc(C(F)(F)F)nc1)CC(O)c1cccnc1` (centres unmarked) [compound 28, methyl N-[2-hydroxy-2-(3-pyridyl)ethyl]-N-[2-[6-(trifluoromethyl)-3-pyridyl]ethyl]carbamate], the IC50 was above 1000 nM.
To `CCCN(C[C@@H](O)c1cccnc1)C(=O)Cc1ccc(C)c(C)c1` [compound 99, 2-(3,4-dimethylphenyl)-N-[(2S)-2-hydroxy-2-(3-pyridyl)ethyl]-N-propyl-acetamide] belongs 100 to 1000 nM.
Turning to `CC(C)(C)OC(=O)NCCCCCN(CC(O)c1cccnc1)C(=O)Cc1ccc(Cl)c(Cl)c1` (centres unmarked) [compound 139, tert-butyl N-[5-[[2-(3,4-dichlorophenyl)acetyl]-[2-hydroxy-2-(3-pyridyl)ethyl]amino]pentyl]carbamate], the IC50 is at most 100 nM.
Consider `CCCN(C[C@@H](O)c1cccnc1)C(=O)Cc1cncc(Cl)c1` [compound 44, 2-(5-chloro-3-pyridyl)-N-[(2S)-2-hydroxy-2-(3-pyridyl)ethyl]-N-propyl-acetamide], for which the IC50 was above 1000 nM.
As for `CCC(=O)N(CCc1ccc(C(F)(F)F)nc1)CC(O)c1cccnn1` (centres unmarked) [compound 49], the IC50 was above 1000 nM.
For `CCCN(CC(O)c1cccnc1)C(=O)Cc1ccc(Cl)c(Cl)c1` (centres unmarked) [compound 1, 2-(3,4-dichlorophenyl)-N-[2-hydroxy-2-(3-pyridyl)ethyl]-N-propyl-acetamide], the IC50 was at most 100 nM.
`CCCN(CC(O)c1cccnn1)C(=O)Cc1ccc(Cl)c(Cl)c1` (centres unmarked) [compound 97]: the IC50 was at most 100 nM.
The value for `CCCN(C[C@@H](O)c1cccnc1)C(=O)C1Cc2cc(Cl)c(C#N)cc2C1` (stereo partly drawn) [compound 134, 5-chloro-6-cyano-N-[(2S)-2-hydroxy-2-(3-pyridyl)ethyl]-N-propyl-indane-2-carboxamide] was at most 100 nM.
On to `N#Cc1ccc(CC(=O)N(CC2COC2)C[C@@H](O)c2cccnc2)cc1Cl` [compound 80, 2-(3-chloro-4-cyano-phenyl)-N-[(2S)-2-hydroxy-2-(3-pyridyl)ethyl]-N-(oxetan-3-ylmethyl)acetamide], for which the IC50 lay in the range of 100 to 1000 nM.
Take `CCCN(C[C@@H](O)c1cccnc1)C(=O)N1Cc2cc(Cl)c(Cl)cc2C1` [compound 107, 5,6-dichloro-N-[(2S)-2-hydroxy-2-(3-pyridyl)ethyl]-N-propyl-isoindoline-2-carboxamide]: the IC50 was at most 100 nM.
For `CCCN(CC(O)c1cccnn1)C(=O)Cc1ccc(C#N)c(Cl)c1` (centres unmarked) [compound 52, 2-(3-chloro-4-cyanophenyl)-N-(2-hydroxy-2-pyridazin-3-yl-ethyl)-N-propyl-acetamide], the half-inhibitory concentration (IC50) was in the range of 100 to 1000 nM.
For the compound `CC(C)N(C[C@@H](O)c1cccnc1)C(=O)Cc1ccc(C(F)(F)F)nc1` [compound 72, (S)-N-(2-hydroxy-2-(pyridin-3-yl)ethyl)-N-isopropyl-2-(6-(trifluoromethyl)pyridin-3-yl)acetamide], the concentration for half-maximal inhibition (IC50) was in the range of 100 to 1000 nM.
Consider `O=C(Cc1ccc(C(F)(F)F)nc1)N(CC1CCOCC1)C[C@@H](O)c1cccnc1` [compound 79, N-[(2S)-2-hydroxy-2-(3-pyridyl)ethyl]-N-(tetrahydropyran-4-ylmethyl)-2-[6-(trifluoromethyl)-3-pyridyl]acetamide], for which the IC50 was above 1000 nM.
As to `CCCN(CC(O)c1cccnc1)C(=O)C(C)c1ccc(Cl)c(Cl)c1` (centres unmarked) [compound 117, 2-(3,4-dichlorophenyl)-N-[2-hydroxy-2-(3-pyridyl)ethyl]-N-propyl-propanamide], the IC50 was above 1000 nM.
For `CCCN(C[C@@H](O)c1cccnc1)C(=O)Cc1ccc(C(F)F)c(F)c1` [compound 50, 2-[4-(difluoromethyl)-3-fluoro-phenyl]-N-[(2S)-2-hydroxy-2-(3-pyridyl)ethyl]-N-propyl-acetamide], the IC50 was at most 100 nM.
For the compound `CC1(CN(C[C@@H](O)c2cccnc2)C(=O)Cc2ccc(Cl)c(Cl)c2)CC1` [compound 27, 2-(3,4-dichlorophenyl) -N-[(2S)-2-hydroxy-2-(3-pyridyl)ethyl]-N-[(1-methylcyclopropyl)methyl]acetamide], the 50% inhibitory concentration (IC50) was at most 100 nM.
The value for `CCCN(CC(O)c1cccnn1)C(=O)Cc1ccc(OC(F)(F)F)c(Cl)c1` (centres unmarked) [compound 116] was 100 to 1000 nM; that for `CCCN(C[C@@H](O)c1cccnc1)C(=O)c1nc2cc(Cl)c(Cl)cc2[nH]1` [compound 101, 5,6-dichloro-N-[(2S)-2-hydroxy-2-(3-pyridyl)ethyl]-N-propyl-1 H-benzimidazole-2-carboxamide] was above 1000 nM.
For `CC(C)N(C[C@@H](O)c1cccnc1)C(=O)Cc1cnc(C(F)(F)F)nc1` [compound 94, N-[(2S)-2-hydroxy-2-(3-pyridyl)ethyl]-N-isopropyl-2-[2-(trifluoromethyl)pyrimidin-5-yl]acetamide], the IC50 was in the range of 100 to 1000 nM.
To `O=C(Cc1ccc(F)c(Cl)c1)N(CC1COC1)C[C@@H](O)c1cccnc1` [compound 65, 2-(3-chloro-4-fluoro-phenyl)-N-[(2S)-2-hydroxy-2-(3-pyridyl)ethyl]-N-(oxetan-3-ylmethyl)acetamide] belongs above 1000 nM; to `CCCN(CC(O)c1cccnc1)S(=O)(=O)Cc1ccc(Cl)c(Cl)c1` (centres unmarked) [compound 10, 1-(3,4-dichlorophenyl)-N-[2-hydroxy-2-(3-pyridyl)ethyl]-N-propyl-methanesulfonamide], above 1000 nM.
